Measurements: PubChem BioAssay AID274 (DTP/NCI, 2004)
Several values for one entry are separate records, joined by “and”; a condition that tells them apart may be missing. Identical values can stand only once. Inconclusive results and toxic doses are left out. Numbered stars: 1 amine (or outer) side, 2 acyl side, 3 side chain; on linkers, the order of the positions; unused ones are H or OH. Bridge positions count the residues as written; N and C are the ends. Square brackets hold non-standard residues; d marks the D form. Peptide text beside a SMILES is read from it. I, II: the chains in the order shown. * marks the point of attachment. Actinocin(1to9) = Cc1c2oc3c(C)ccc(C(=O)[*:2])c3nc-2c(C(=O)[*:1])c(N)c1=O; Trt = c1ccc(C(c2ccccc2)(c2ccccc2)*)cc1; NMeV = CN[CH](C(=O)O)C(C)C; Cbz = O=C(OCc1ccccc1)*; Aze = O=C(O)[CH]1CCN1; Bn = c1ccc(C*)cc1; βAla = NCCC(=O)O; Sar = CNCC(=O)O

System: BDF1 mice, Lewis lung carcinoma iv, survival T/C
Test: NCI In Vivo Anticancer Drug Screen. Data for tumor model Lewis Lung Carcinoma (intravenous) in B6D2F1 (BDF1) mice
Details: endpoint: median survival time, higher = longer survival
Description: The antitumor activity of compounds was measured in mice bearing transplantable tumors. Survival or tumor size were measured and the results are expressed as the measurement made in the treated group (T) divided by the measurement made in the vehicle treated control group (C). The tumor model used in this assay is Lewis Lung Carcinoma (intravenous) in B6D2F1 (BDF1) mice

[1] = dose: 32.0 mg/kg/injection, schedule: Q01DX009 (ip), vehicle: Klucel (hydroxypropylcellulose) (HPC)
[2] = dose: 64.0 mg/kg/injection, schedule: Q01DX009 (ip), vehicle: Klucel (hydroxypropylcellulose) (HPC)
[3] = dose: 128.0 mg/kg/injection, schedule: Q01DX009 (ip), vehicle: Klucel (hydroxypropylcellulose) (HPC)
[4] = dose: 256.0 mg/kg/injection, schedule: Q01DX009 (ip), vehicle: Klucel (hydroxypropylcellulose) (HPC)
[5] = dose: 512.0 mg/kg/injection, schedule: Q01DX009 (ip), vehicle: Klucel (hydroxypropylcellulose) (HPC)
[6] = dose: 6.25 mg/kg/injection, schedule: Q01DX009 (ip), vehicle: saline
[7] = dose: 12.5 mg/kg/injection, schedule: Q01DX009 (ip), vehicle: saline
[8] = dose: 25.0 mg/kg/injection, schedule: Q01DX009 (ip), vehicle: saline
[9] = dose: 50.0 mg/kg/injection, schedule: Q01DX009 (ip), vehicle: saline
[10] = dose: 100.0 mg/kg/injection, schedule: Q01DX009 (ip), vehicle: saline
[11] = dose: 12.5 mg/kg/injection, schedule: Q01DX009 (ip), vehicle: Klucel (hydroxypropylcellulose) (HPC)
[12] = dose: 25.0 mg/kg/injection, schedule: Q01DX009 (ip), vehicle: Klucel (hydroxypropylcellulose) (HPC)
[13] = dose: 50.0 mg/kg/injection, schedule: Q01DX009 (ip), vehicle: Klucel (hydroxypropylcellulose) (HPC)
[14] = dose: 100.0 mg/kg/injection, schedule: Q01DX009 (ip), vehicle: Klucel (hydroxypropylcellulose) (HPC)
[15] = dose: 2.0 mg/kg/injection, schedule: Q01DX009 (ip), vehicle: saline
[16] = dose: 4.0 mg/kg/injection, schedule: Q01DX009 (ip), vehicle: saline

Compound: O=c1cc[nH]c(=O)[nH]1
- T/C [1]: 105 % of control
- T/C [2]: 96 % of control
- T/C [3]: 102 % of control
- T/C [4]: 86 % of control
- T/C [5]: 111 % of control

Compound: [CH3][Sn]([CH3])([Cl])[S]CCN
- T/C (dose: 3.12 mg/kg/injection, schedule: Q01DX009 (ip), vehicle: saline): 91 % of control
- T/C [6]: 95 % of control
- T/C [7]: 97 % of control
- T/C [8]: 91 % of control

Compound: CCCCCCCCCCCCN1C(C)=CS/C1=C\C=C\c1scc(C)[n+]1CCCCCCCCCCCC
- T/C (dose: 0.78 mg/kg/injection, schedule: Q01DX009 (ip), vehicle: saline with Tween-80): 95 % of control
- T/C (dose: 1.56 mg/kg/injection, schedule: Q01DX009 (ip), vehicle: saline with Tween-80): 98 % of control
- T/C (dose: 3.12 mg/kg/injection, schedule: Q01DX009 (ip), vehicle: saline with Tween-80): 91 % of control

Compound: C=CC(=O)NCNC(=O)C=C
- T/C [6]: 90 % of control
- T/C [7]: 102 % of control and 113 % of control
- T/C [8]: 98 % of control and 104 % of control
- T/C [9]: 97 % of control and 98 % of control
- T/C [10]: 101 % of control and 110 % of control

Compound: Cc1c[nH]c(=O)[nH]c1=O
- T/C [1]: 104 % of control
- T/C [2]: 114 % of control
- T/C [3]: 93 % of control
- T/C [4]: 101 % of control
- T/C [5]: 92 % of control

Compound: O=C(NCCCN1CC1)C(=O)NCCCN1CC1
- T/C (dose: 0.75 mg/kg/injection, schedule: Q01DX009 (ip), vehicle: saline): 110 % of control
- T/C (dose: 1.5 mg/kg/injection, schedule: Q01DX009 (ip), vehicle: saline): 114 % of control
- T/C (dose: 3.0 mg/kg/injection, schedule: Q01DX009 (ip), vehicle: saline): 120 % of control

Compound: COc1ccc(C(N)=O)cc1N=NN(C)C
- T/C (dose: 3.12 mg/kg/injection, schedule: Q01DX009 (ip), vehicle: Klucel (hydroxypropylcellulose) (HPC)): 95 % of control
- T/C (dose: 6.25 mg/kg/injection, schedule: Q01DX009 (ip), vehicle: Klucel (hydroxypropylcellulose) (HPC)): 98 % of control
- T/C [11]: 118 % of control
- T/C [12]: 110 % of control

Compound: Nc1ncnc2c1ncn2C1OC(CO)C(O)C1O (stereo unspecified)
- T/C [1]: 101 % of control
- T/C [2]: 108 % of control
- T/C [3]: 97 % of control
- T/C [4]: 106 % of control
- T/C [5]: 87 % of control

Compound: O=C(O)/C=C/C(=O)Nc1ccc(Cl)c(Cl)c1
- T/C [11]: 102 % of control
- T/C [12]: 99 % of control
- T/C [13]: 98 % of control
- T/C [14]: 104 % of control

Compound: COC(=O)C(CSC(c1ccccc1)(c1ccccc1)c1ccccc1)NC(=O)C(CSCc1ccccc1)NC(=O)CCNC(=O)OCc1ccccc1 (stereo unspecified) ({Cbz-βAla}-Cys(Bn)-Cys(Trt)-OMe; configuration not given here)
- T/C [11]: 104 % of control
- T/C [12]: 96 % of control
- T/C [13]: 103 % of control
- T/C [14]: 98 % of control
- T/C (dose: 200.0 mg/kg/injection, schedule: Q01DX009 (ip), vehicle: Klucel (hydroxypropylcellulose) (HPC)): 97 % of control

Compound: C=C(C)/C([O-])=N/[N+](C)(C)CC(O)CCCCCCCCCCCC (stereo unspecified)
- T/C (dose: 12.5 mg/kg/injection, schedule: Q01DX001 (ip), vehicle: saline): 99 % of control
- T/C (dose: 50.0 mg/kg/injection, schedule: Q01DX001 (ip), vehicle: saline): 86 % of control
- T/C (dose: 100.0 mg/kg/injection, schedule: Q01DX001 (ip), vehicle: saline): 92 % of control
- T/C (dose: 200.0 mg/kg/injection, schedule: Q01DX001 (ip), vehicle: saline): 104 % of control
- T/C (dose: 400.0 mg/kg/injection, schedule: Q01DX001 (ip), vehicle: saline): 87 % of control

Compound: Nc1nc([Se])c2ncn(C3OC(CO)C(O)C3O)c2n1 (stereo unspecified)
- T/C [15]: 96 % of control
- T/C [16]: 99 % of control
- T/C (dose: 8.0 mg/kg/injection, schedule: Q01DX009 (ip), vehicle: saline): 118 % of control

Compound: C1OC1CO[C@@H]1CO[C@H]2[C@@H]1OC[C@H]2OCC1CO1 (stereo partly specified)
- T/C [7]: 113 % of control
- T/C [8]: 100 % of control
- T/C [9]: 123 % of control
- T/C [10]: 177 % of control

Compound: C=C1C(C)C2C(Cc3ccccc3)NC(=O)C23C(OC(C)=O)/C=C/C(C)(O)CC(C)C/C=C/C3C1O (stereo unspecified)
- T/C (dose: 0.37 mg/kg/injection, schedule: Q01DX009 (ip), vehicle: Klucel (hydroxypropylcellulose) (HPC)): 93 % of control
- T/C (dose: 0.38 mg/kg/injection, schedule: Q01DX009 (ip), vehicle: Klucel (hydroxypropylcellulose) (HPC)): 107 % of control
- T/C (dose: 0.75 mg/kg/injection, schedule: Q01DX009 (ip), vehicle: Klucel (hydroxypropylcellulose) (HPC)): 102 % of control
- T/C (dose: 1.5 mg/kg/injection, schedule: Q01DX009 (ip), vehicle: Klucel (hydroxypropylcellulose) (HPC)): 96 % of control and 105 % of control
- T/C (dose: 3.0 mg/kg/injection, schedule: Q01DX009 (ip), vehicle: Klucel (hydroxypropylcellulose) (HPC)): 104 % of control and 106 % of control
- T/C (dose: 6.0 mg/kg/injection, schedule: Q01DX009 (ip), vehicle: Klucel (hydroxypropylcellulose) (HPC)): 101 % of control and 110 % of control
- T/C (dose: 12.0 mg/kg/injection, schedule: Q01DX009 (ip), vehicle: Klucel (hydroxypropylcellulose) (HPC)): 109 % of control

Compound: OC(C1CO1)C(O)C1CO1 (stereo unspecified)
- T/C (dose: 0.25 mg/kg/injection, schedule: Q01DX009 (ip), vehicle: saline): 93 % of control
- T/C (dose: 0.5 mg/kg/injection, schedule: Q01DX009 (ip), vehicle: saline): 94 % of control and 107 % of control
- T/C (dose: 1.0 mg/kg/injection, schedule: Q01DX009 (ip), vehicle: saline): 100 % of control and 113 % of control
- T/C [15]: 95 % of control
- T/C [16]: 121 % of control

Compound: C[C@@]12C(=O)OC(=O)[C@]1(C)[C@H]1CC[C@@H]2O1
- T/C (dose: 0.06 mg/kg/injection, schedule: Q01DX009 (ip), vehicle: Klucel (hydroxypropylcellulose) (HPC)): 104 % of control
- T/C (dose: 0.12 mg/kg/injection, schedule: Q01DX009 (ip), vehicle: Klucel (hydroxypropylcellulose) (HPC)): 108 % of control
- T/C (dose: 0.25 mg/kg/injection, schedule: Q01DX009 (ip), vehicle: Klucel (hydroxypropylcellulose) (HPC)): 95 % of control
- T/C (dose: 0.5 mg/kg/injection, schedule: Q01DX009 (ip), vehicle: Klucel (hydroxypropylcellulose) (HPC)): 108 % of control
- T/C (dose: 1.0 mg/kg/injection, schedule: Q01DX009 (ip), vehicle: Klucel (hydroxypropylcellulose) (HPC)): 97 % of control

Compound: CCCCc1ccc2nc(NC(=O)OC)[nH]c2c1
- T/C (dose: 6.25 mg/kg/injection, schedule: Q01DX009 (ip), vehicle: saline with Tween-80): 94 % of control
- T/C (dose: 12.5 mg/kg/injection, schedule: Q01DX009 (ip), vehicle: saline with Tween-80): 92 % of control
- T/C (dose: 25.0 mg/kg/injection, schedule: Q01DX009 (ip), vehicle: saline with Tween-80): 103 % of control
- T/C (dose: 50.0 mg/kg/injection, schedule: Q01DX009 (ip), vehicle: saline with Tween-80): 102 % of control
- T/C (dose: 100.0 mg/kg/injection, schedule: Q01DX009 (ip), vehicle: saline with Tween-80): 107 % of control

Compound: Cc1c2oc3c(C)ccc(C(=O)NC4C(=O)NC(C(C)C)C(=O)N5CCCC5C(=O)N(C)CC(=O)N(C)C(C(C)C)C(=O)OC4C)c3nc-2c(C(=O)NC2C(=O)NC(C(C)C)C(=O)N3CCC3C(=O)N(C)CC(=O)N(C)C(C(C)C)C(=O)OC2C)c(N)c1=O (stereo unspecified) (I: TV[Aze][Sar][NMeV] / II: TVP[Sar][NMeV]; ester I:1-I:C, II:1-II:C; linker I:N-II:N via Actinocin(1to9); configuration not given here)
- T/C (dose: 37.5 micrograms/kg/injection, schedule: Q01DX009 (ip), vehicle: saline + alcohol): 105 % of control
- T/C (dose: 75.0 micrograms/kg/injection, schedule: Q01DX009 (ip), vehicle: saline + alcohol): 113 % of control
- T/C (dose: 194.0 micrograms/kg/injection, schedule: Q04DX003 (ip), vehicle: saline + alcohol): 92 % of control
- T/C (dose: 270.0 micrograms/kg/injection, schedule: Q04DX003 (ip), vehicle: saline + alcohol): 95 % of control
- T/C (dose: 324.0 micrograms/kg/injection, schedule: Q04DX003 (ip), vehicle: saline + alcohol): 105 % of control
- T/C (dose: 450.0 micrograms/kg/injection, schedule: Q04DX003 (ip), vehicle: saline + alcohol): 104 % of control
- T/C (dose: 540.0 micrograms/kg/injection, schedule: Q04DX003 (ip), vehicle: saline + alcohol): 105 % of control
- T/C (dose: 648.0 micrograms/kg/injection, schedule: Q01DX001 (ip), vehicle: saline + alcohol): 94 % of control
- T/C (dose: 1080.0 micrograms/kg/injection, schedule: Q01DX001 (ip), vehicle: saline + alcohol): 94 % of control
